Experiment: Reactivity of PL13 free acid with aspartic acid
Settings: 10 equivalents Asp, pH 7.0, 18 hours, RT
Method: PL13 free acid was treated with 10 equivalents of aspartic acid (Asp) at pH 7.0 and at RT. Analysis was performed by RP-HPLC at gradient of 1% to 50% B over 15 minutes with detection at 254 nm.
50 μL of 2.61 mM PL13 free acid in methanol was mixed with […] of […] in buffer to give a final concentration of 0.42 mM PL13 free acid and 4.2 mM Asp.

C=Cc1cc(C)nc(CCC(=O)O)c1 [PL13 free acid]
stability in the presence of Asp: stable

Source: patent US11285220B2, “Materials and methods relating to linkers for use in protein drug conjugates” (Iksuda Therapeutics Limited, priority 2014, dated 2022)
